From patent US9873680B2 (Gilead Sciences, Inc., priority 2014, dated 2018)
Read-outs that look alike come from different tables or passages of the source.

Legend:
[1] = Test B: Cytotoxicity Assay; assay type: cell-based; conditions: human, uninfected MT-4 cells, CellTiter-Glo
Description: Test B: Cytotoxicity Assay Compound cytotoxicity and the corresponding CC50 values was determined using the same protocol as described in the antiviral assay (Test A) except that uninfected cells were used.

HIV-IIIb = assay: Test A: Antiviral Assay in MT4 Cells; assay type: cell-based, HIV-1
In short: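 MT-4 cells were preinfected with HIV-IIIb […]. Cell viability, as protection from viral cytopathic effect, was read by CellTiter-Glo chemiluminescence.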

[2] = Human immunodeficiency virus 1, IIIB, MT4, 120 h, read-out: % inhibition at 0.2 μM (percent inhibition of virus-induced cell killing)
[3] = Human immunodeficiency virus 1, MT4, 120 h, 0.2 μM drug concentration, MT-4 cells infected with HIV-IIIb, 5 days, values normalized to 100%, average over time, read-out: % inhibition at 0.2 μM (percent inhibition of virus-induced cell killing)

CC(=O)N1CCO[C@](C)(C#Cc2ccc(-c3ccc(Cl)c4c(NS(C)(=O)=O)nn(C)c34)c([C@H](Cc3cc(F)cc(F)c3)NC(=O)Cn3nc(C(F)F)c4c3C(F)(F)[C@@H]3C[C@H]43)n2)C1 [Compound 86, N—((S)-1-(6-(((R)-4-acetyl-2-methylmorpholin-2-yl)ethynyl)-3-(4-chloro-1-methyl-3-(methylsulfonamido)-1H-indazol-7-yl)pyridin-2-yl)-2-(3,5-difluorophenyl)ethyl)-2-((3bS,4aR)-3-(difluoromethyl)-5,5-difluoro-3b,4,4a,5-tetrahydro-1H-cyclopropa[3,4]cyclopenta[1,2-c]pyrazol-1-yl)acetamide]
CC50 at 5 days [1]: 21.4 µM
inhibition at 0.2 µM (HIV-IIIb; [2]): 93%

CC(C)N1CCO[C@](C)(C#Cc2ccc(-c3ccc(Cl)c4c(NS(C)(=O)=O)nn(C)c34)c([C@H](Cc3cc(F)cc(F)c3)NC(=O)Cn3nc(C(F)F)c4c3C(F)(F)[C@@H]3C[C@H]43)n2)C1 [Compound 87, N—((S)-1-(3-(4-chloro-1-methyl-3-(methylsulfonamido)-1H-indazol-7-yl)-6-(((R)-4-isopropyl-2-methylmorpholin-2-yl)ethynyl)pyridin-2-yl)-2-(3,5-difluorophenyl)ethyl)-2-((3bS,4aR)-3-(difluoromethyl)-5,5-difluoro-3b,4,4a,5-tetrahydro-1H-cyclopropa[3,4]cyclopenta[1,2-c]pyrazol-1-yl)acetamide]
CC50 at 5 days [1]: 19.5 µM
inhibition at 0.2 µM (HIV-IIIb; [3]): 100%

Cn1nc(NS(C)(=O)=O)c2c(Cl)ccc(-c3ccc(C#C[C@]4(C)CNCCO4)nc3[C@H](Cc3cc(F)cc(F)c3)NC(=O)Cn3nc(C#N)c4c3C(F)(F)[C@@H]3C[C@H]43)c21 [Compound 88L, N—((S)-1-(3-(4-chloro-1-methyl-3-(methylsulfonamido)-1H-indazol-7-yl)-6-(((R)-2-methylmorpholin-2-yl)ethynyl)pyridin-2-yl)-2-(3,5-difluorophenyl)ethyl)-2-((3bS,4aR)-3-cyano-5,5-difluoro-3b,4,4a,5-tetrahydro-1H-cyclopropa[3,4]cyclopenta[1,2-c]pyrazol-1-yl)acetamide]
CC50 at 5 days [1]: 5.79 µM
inhibition at 0.2 µM (HIV-IIIb; [3]): 97%

Cc1nccn1C(C)(C)C#Cc1ccc(-c2ccc(Cl)c3c(NS(C)(=O)=O)nn(C)c23)c([C@H](Cc2cc(F)cc(F)c2)NC(=O)Cn2nc(C(F)F)c3c2C(F)(F)[C@@H]2C[C@H]32)n1 [Compound 89B]
CC50 at 5 days [1]: 8.31 µM
inhibition at 0.2 µM (HIV-IIIb; [3]): 87%

Cc1nccn1C(C)(C)C#Cc1ccc(-c2ccc(Cl)c3c(NS(C)(=O)=O)nn(C)c23)c([C@H](Cc2cc(F)cc(F)c2)NC(=O)Cn2nc(C(F)(F)F)c3c2C(F)(F)[C@@H]2C[C@H]32)n1 [Compound 90, N—((S)-1-(3-(4-chloro-1-methyl-3-(methylsulfonamido)-1H-indazol-7-yl)-6-(3-methyl-3-(2-methyl-1H-imidazol-1-yl)but-1-yn-1-yl)pyridin-2-yl)-2-(3,5-difluorophenyl)ethyl)-2-((3bS,4aR)-5,5-difluoro-3-(trifluoromethyl)-3b,4,4a,5-tetrahydro-1H-cyclopropa[3,4]cyclopenta[1,2-c]pyrazol-1-yl)acetamide]
CC50 at 5 days [1]: 3.04 µM
inhibition at 0.2 µM (HIV-IIIb; [3]): 98%

Cn1nc(NS(C)(=O)=O)c2c(Cl)ccc(-c3ccc(C#CC(C)(C)c4ncc[nH]4)nc3[C@H](Cc3cc(F)cc(F)c3)NC(=O)Cn3nc(C(F)F)c4c3C(F)(F)[C@@H]3C[C@H]43)c21 [Compound 91F, N—((S)-1-(6-(3-(1H-imidazol-2-yl)-3-methylbut-1-yn-1-yl)-3-(4-chloro-1-methyl-3-(methylsulfonamido)-1H-indazol-7-yl)pyridin-2-yl)-2-(3,5-difluorophenyl)ethyl)-2-((3bS,4aR)-3-(difluoromethyl)-5,5-difluoro-3b,4,4a,5-tetrahydro-1H-cyclopropa[3,4]cyclopenta[1,2-c]pyrazol-1-yl)acetamide]
CC50 at 5 days [1]: 14.6 µM
inhibition at 0.2 µM (HIV-IIIb; [3]): 98%

Cn1ccnc1C(C)(C)C#Cc1ccc(-c2ccc(Cl)c3c(NS(C)(=O)=O)nn(C)c23)c([C@H](Cc2cc(F)cc(F)c2)NC(=O)Cn2nc(C(F)F)c3c2C(F)(F)[C@@H]2C[C@H]32)n1 [Compound 92B, N—((S)-1-(3-(4-chloro-1-methyl-3-(methylsulfonamido)-1H-indazol-7-yl)-6-(3-methyl-3-(1-methyl-1H-imidazol-2-yl)but-1-yn-1-yl)pyridin-2-yl)-2-(3,5-difluorophenyl)ethyl)-2-((3bS,4aR)-3-(difluoromethyl)-5,5-difluoro-3b,4,4a,5-tetrahydro-1H-cyclopropa[3,4]cyclopenta[1,2-c]pyrazol-1-yl)acetamide]
CC50 at 5 days [1]: 25.9 µM
inhibition at 0.2 µM (HIV-IIIb; [3]): 100%

Cn1nc(NS(C)(=O)=O)c2c(Cl)ccc(-c3cc(-c4cnn(C5COC5)c4)cnc3[C@H](Cc3cc(F)cc(F)c3)NC(=O)Cn3nc(C(F)F)c4c3C(F)(F)[C@@H]3C[C@H]43)c21 [Compound 93D, N—((S)-1-(3-(4-chloro-1-methyl-3-(methylsulfonamido)-1H-indazol-7-yl)-5-(1-(oxetan-3-yl)-1H-pyrazol-4-yl)pyridin-2-yl)-2-(3,5-difluorophenyl)ethyl)-2-((3bS,4aR)-3-(difluoromethyl)-5,5-difluoro-3b,4,4a,5-tetrahydro-1H-cyclopropa[3,4]cyclopenta[1,2-c]pyrazol-1-yl)acetamide]
CC50 at 5 days [1]: 18.3 µM
inhibition at 0.2 µM (HIV-IIIb; [3]): 93%

Cn1nc(NS(C)(=O)=O)c2c(Cl)ccc(-c3ccc(C#CC4(CO)CC4)nc3[C@H](Cc3cc(F)cc(F)c3)NC(=O)Cn3nc(C(F)F)c4c3C(F)(F)[C@@H]3C[C@H]43)c21 [Compound 94B, N—((S)-1-(3-(4-chloro-1-methyl-3-(methylsulfonamido)-1H-indazol-7-yl)-6-((1-(hydroxymethyl)cyclopropyl)ethynyl)pyridin-2-yl)-2-(3,5-difluorophenyl)ethyl)-2-((3bS,4aR)-3-(difluoromethyl)-5,5-difluoro-3b,4,4a,5-tetrahydro-1H-cyclopropa[3,4]cyclopenta[1,2-c]pyrazol-1-yl)acetamide]
CC50 at 5 days [1]: 12.4 µM
inhibition at 0.2 µM (HIV-IIIb; [3]): 91%

Cn1nc(NS(C)(=O)=O)c2c(Cl)ccc(-c3ccc(C#CC4CC4)nc3[C@H](Cc3cc(F)cc(F)c3)NC(=O)Cn3nc(C(F)F)c4c3C(F)(F)[C@@H]3C[C@H]43)c21 [Compound 96, N—((S)-1-(3-(4-chloro-1-methyl-3-(methylsulfonamido)-1H-indazol-7-yl)-6-(cyclopropylethynyl)pyridin-2-yl)-2-(3,5-difluorophenyl)ethyl)-2-((3bS,4aR)-3-(difluoromethyl)-5,5-difluoro-3b,4,4a,5-tetrahydro-1H-cyclopropa[3,4]cyclopenta[1,2-c]pyrazol-1-yl)acetamide]
CC50 at 5 days [1]: 20.1 µM
inhibition at 0.2 µM (HIV-IIIb; Human immunodeficiency virus 1, IIIB, MT4, 0.2 μM drug concentration, comparison with previously published compounds, read-out: Response at 0.2 μM (percent inhibition of virus-induced cell killing)): 82%
inhibition at 2 µM (HIV-IIIb; Human immunodeficiency virus 1, IIIB, MT4, 2 μM drug concentration, comparison with previously published compounds, read-out: Response at 2 μM (percent inhibition of virus-induced cell killing)): 82%
inhibition at 0.2 µM (HIV-IIIb; [3]): 82%

Cn1nc(NS(C)(=O)=O)c2c(Cl)ccc(-c3ccc(C#C[C@@H]4COC(=O)N4)nc3[C@H](Cc3cc(F)cc(F)c3)NC(=O)Cn3nc(C(F)F)c4c3C(F)(F)[C@@H]3C[C@H]43)c21 [Compound 97C, N—((S)-1-(3-(4-chloro-1-methyl-3-(methylsulfonamido)-1H-indazol-7-yl)-6-(((R)-2-oxooxazolidin-4-yl)ethynyl)pyridin-2-yl)-2-(3,5-difluorophenyl)ethyl)-2-((3bS,4aR)-3-(difluoromethyl)-5,5-difluoro-3b,4,4a,5-tetrahydro-1H-cyclopropa[3,4]cyclopenta[1,2-c]pyrazol-1-yl)acetamide]
CC50 at 5 days [1]: 15.2 µM
inhibition at 0.2 µM (HIV-IIIb; [3]): 89%

Cn1nc(NS(C)(=O)=O)c2c(Cl)ccc(-c3ccc(C#CC(C)(C)n4cn[nH]c4=O)nc3[C@H](Cc3cc(F)cc(F)c3)NC(=O)Cn3nc(C(F)F)c4c3C(F)(F)[C@@H]3C[C@H]43)c21 [Compound 98D, N—((S)-1-(3-(4-chloro-1-methyl-3-(methylsulfonamido)-1H-indazol-7-yl)-6-(3-methyl-3-(5-oxo-1H-1,2,4-triazol-4(5H)-yl)but-1-yn-1-yl)pyridin-2-yl)-2-(3,5-difluorophenyl)ethyl)-2-((3bS,4aR)-3-(difluoromethyl)-5,5-difluoro-3b,4,4a,5-tetrahydro-1H-cyclopropa[3,4]cyclopenta[1,2-c]pyrazol-1-yl)acetamide]
CC50 at 5 days [1]: 10.4 µM
inhibition at 0.2 µM (HIV-IIIb; [3]): 94%

Cn1nc(NS(C)(=O)=O)c2c(Cl)ccc(-c3cc(N)c(C#CC4(O)CC(F)(F)C4)nc3[C@H](Cc3cc(F)cc(F)c3)NC(=O)Cn3nc(C(F)(F)F)c4c3C(F)(F)[C@@H]3C[C@H]43)c21 [Compound 100, N—((S)-1-(5-amino-3-(4-chloro-1-methyl-3-(methylsulfonamido)-1H-indazol-7-yl)-6-((3,3-difluoro-1-hydroxycyclobutyl)ethynyl)pyridin-2-yl)-2-(3,5-difluorophenyl)ethyl)-2-((3bS,4aR)-5,5-difluoro-3-(trifluoromethyl)-3b,4,4a,5-tetrahydro-1H-cyclopropa[3,4]cyclopenta[1,2-c]pyrazol-1-yl)acetamide]
CC50 at 5 days [1]: 8.2 µM
inhibition at 0.2 µM (HIV-IIIb; [2]): 87%

Cn1nc(NS(C)(=O)=O)c2c(Cl)ccc(-c3ccc(C#CC4(O)CC(F)(F)C4)nc3[C@H](Cc3cccc(F)c3)NC(=O)Cn3nc(C(F)F)c4c3C(F)(F)[C@@H]3C[C@H]43)c21 [Compound 101H, N—((S)-1-(3-(4-chloro-1-methyl-3-(methylsulfonamido)-1H-indazol-7-yl)-6-((3,3-difluoro-1-hydroxycyclobutyl)ethynyl)pyridin-2-yl)-2-(3-fluorophenyl)ethyl)-2-((3bS,4aR)-3-(difluoromethyl)-5,5-difluoro-3b,4,4a,5-tetrahydro-1H-cyclopropa[3,4]cyclopenta[1,2-c]pyrazol-1-yl)acetamide]
CC50 at 5 days [1]: 9.1 µM
inhibition at 0.2 µM (HIV-IIIb; [3]): 91%
